Assay results taken from US10787651B2, “Bradyrhizobium monooxygenase and use thereof for preparation of chiral sulfoxide” (JIANGSU AOSAIKANG PHARMACEUTICAL CO., LTD., priority 2018, dated 2020).

Key:
purified BoTEMO enzyme = assay: Specific activity and ee of purified BoTEMO enzyme against a series of thioethers; format: biochemical, Bradyrhizobium oligotrophicum ECU1212; details: pH 9.0, 25° C.
Experimental: To 0.5 ml of potassium phosphate buffer (100 mmol/L, pH 9.0) was added purified BoTEMO enzyme (purified BoTEMO enzyme prepared in accordance with the method of Example 5). A thioether substrate dissolved in DMSO was added so that the final concentration of the thioether was 0.2-2 mmol/L and the final concentration of DMSO was 2% (v/v), and NADPH was added to a final concentration 0.2-2 mmol/L. At 25° C., the reaction was stirred at 1000 rpm under shaking. After completion of reaction, 0.6 ml of ethyl acetate was added for extraction. The extract was dried over anhydrous sodium sulfate. The organic clear liquid was taken up, and evaporated overnight to remove the solvent. Then, the residue was dissolved with 0.5 ml of isopropanol and analyzed for measuring the ee value of product.
The particular analysis conditions of conversion rate and ee value of product are as follows:
The analysis is carried out with a high performance liquid chromatograph (HPLC) under the conditions of: a chiral OD-H column ([…], 5 μm particle size, Daicel), a mobile phase of n-hexane:isopropanol=93:7, a flow rate of 1 ml/min, and UV detection at 254 nm; or an AS-H column (250 mm×4.6 mm, 5 μm particle size, Daicel), a mobile phase of n-hexane:isopropanol=55:45, a flow rate of 0.5 mL/min, and UV detection at 254 nm.
The activity of BoTEMO for catalyzing the asymmetrical oxidation of a series of thioether substrates to produce optically active sulfoxides was further determined by the method in accordance with Example.

[1] = Activity of recombinant BoTEMO by change of absorbance at 340 nm (NADPH); format: biochemical
Experimental: The activity of BoTEMO and glucose dehydrogenase was determined by measuring the change of absorbance at 340 nm with a spectrophotometer.
(§1) The activity of BoTEMO was determined as follows. To 1 ml of the reaction system (100 mmol/L Tris-HCl buffer, pH 9.0) was added 1 mmol/L thioanisole and 0.2 mmol/L NADPH. The mixture was kept at 30° C. for 2 min, and then an appropriate amount of crude enzyme solution prepared in accordance with Example 5 was added. The mixture was rapidly mixed to uniform, and measured for the change of absorbance at 340 nm. The specific activity of the crude enzyme solution was determined as 101 mU/ml.
(§2) The enzyme activity was calculated in accordance with the equation of: Enzyme Activity (U)=EW×V×10^3/(6220×1).
(§3) In the equation, EW represents the change of absorbance at 340 nm in 1 min; V represents the volume of the reaction mixture (in ml); 6220 represents the molar extinction coefficient of NADPH (in L/(mol·cm)); and 1 represents the optical path distance (in cm). Each unit of BoTEMO is defined as the enzyme amount required to catalyze the oxidation of 1 μmol NADPH per minute under the foregoing conditions. Each unit of glucose dehydrogenase is defined as the enzyme amount required to catalyze the reduction of 1 μmol NADP^+ per minute under the foregoing conditions.

[2] = Enzyme activity of BoTEMO-M1 and BoTEMO-M2 powders (method of Example 6); format: biochemical; details: lyophilized crude enzyme powders; for enzyme activity relative to BoTEMO: times that of BoTEMO
Experimental: as §1, §2, §3
Recombinant transformants were prepared from the foregoing two mutant genes of BoTEMO-M1 and BoTEMO-M2 in accordance with the method of Example 4. Resting cells and lyophilized crude enzyme powders were prepared in accordance with the method of Example 5. And further, the enzyme activities of BoTEMO-M1 and BoTEMO-M2 powders were measured in accordance with the method of measuring the enzyme activity of Example 6. The enzyme activities of BoTEMO-M1 and BoTEMO-M2 are 7.6 times that of BoTEMO (BoTEMO-M1) and 1.6 times (BoTEMO-M2), respectively. The activity against the lansoprazole thioether reaches 20 U/g (BoTEMO-M1) and 4.2 U/g (BoTEMO-M2).

CSc1ccccc1 [compound 1]
Specific Activity (purified BoTEMO enzyme): +++ (“+++”: >100 U/g)

COc1ccc2[nH]c(SCc3ncc(C)c(OC)c3C)nc2c1 [compound 2]
Specific Activity (purified BoTEMO enzyme): ++ (“++”: 10 ~ 100 U/g)

COc1ccnc(CSc2nc3cc(-n4cccc4)ccc3[nH]2)c1C [compound 3]
Specific Activity (purified BoTEMO enzyme): ++ (“++”: 10 ~ 100 U/g)

CSc1ccc(C)cc1 [compound 4]
Specific Activity (purified BoTEMO enzyme): + (“+”: <10 U/g)

COc1ccc2[nH]c(SC)nc2c1 [compound 5]
Specific Activity (purified BoTEMO enzyme): + (“+”: <10 U/g)

COCCCOc1ccnc(CSc2nc3ccccc3[nH]2)c1C [compound 6]
Specific Activity (purified BoTEMO enzyme): + (“+”: <10 U/g)

COc1ccnc(CSc2nc3cc(OC(F)F)ccc3[nH]2)c1OC [compound 7]
Specific Activity (purified BoTEMO enzyme): + (“+”: <10 U/g)

Cc1c(OCC(F)(F)F)ccnc1CSc1nc2ccccc2[nH]1 [compound 8]
Specific Activity (purified BoTEMO enzyme): + (“+”: <10 U/g)

B1: BoTEMO: Bradyrhizobium oligotrophicum ECU1212 Thioether Monooxygenase, amino acid sequence SEQ ID No. 2 (protein)
chain: MSTEHVDVLIVGAGLSGIAAAYHLQHKCPGKRFALLEGRGALGGTWDLFRYPGIRSDSDMYTLGYSFKPWTDPKAIADGPQILKYVQDTATENGIDRHIRFNHRVRRASWSSADARWTVEAERQTAQGTTETVSMTCGFLFMCSGYYRYEKGYLPDFKGMADFKGRIVHPQAWPADLDYAGKRVVVIGSGATAVTLVPAMAKTAAHVTMLQRSPTYVVSRPAQDALANKLREHLPAGLAYHLIRWRNVLFGMYFFQLSRRKPQRVKQLILGGVRAALGPDYDVATHFTPRYNPWDQRLCLVPDGDLFRTIREQRASVVTAGIDTFTERGLRLSDGRELEAEIVVTATGLVLQVLGGSEVVVDGRTVDFAKTLNYKGMMYSDVPNMAATLGYTNFSWTLKCDLTCEYVCRLLNYMDRHGYRQCVPHNDDTTVTPLPSLSFSSGYVQRSIADLPKQGSKRPWRLYQNYALDIVSLRFGKVDDGVMRYS
modifications: Bradyrhizobium oligotrophicum ECU1212
specific activity of the crude enzyme solution ([1]; 1 mmol/L thioanisole, 0.2 mmol/L NADPH, pH 9.0, 30° C.): 101 mU/ml
activity of lyophilized crude enzyme solution powders on thioanisole ([1]; lyophilized crude enzyme powders): 0.2 U/mg

B2: BoTEMO-M1: BoTEMO mutant, Asp295Cys, Ser395Leu, Trp396Ala, SEQ ID No. 4 (protein)
chain: MSTEHVDVLIVGAGLSGIAAAYHLQHKCPGKRFALLEGRGALGGTWDLFRYPGIRSDSDMYTLGYSFKPWTDPKAIADGPQILKYVQDTATENGIDRHIRFNHRVRRASWSSADARWTVEAERQTAQGTTETVSMTCGFLFMCSGYYRYEKGYLPDFKGMADFKGRIVHPQAWPADLDYAGKRVVVIGSGATAVTLVPAMAKTAAHVTMLQRSPTYVVSRPAQDALANKLREHLPAGLAYHLIRWRNVLFGMYFFQLSRRKPQRVKQLILGGVRAALGPDYDVATHFTPRYNPWCQRLCLVPDGDLFRTIREQRASVVTAGIDTFTERGLRLSDGRELEAEIVVTATGLVLQVLGGSEVVVDGRTVDFAKTLNYKGMMYSDVPNMAATLGYTNFLATLKCDLTCEYVCRLLNYMDRHGYRQCVPHNDDTTVTPLPSLSFSSGYVQRSIADLPKQGSKRPWRLYQNYALDIVSLRFGKVDDGVMRYS
modifications: VARIANT
activity against the lansoprazole thioether [2]: 20 U/g
enzyme activity relative to BoTEMO [2]: 7.6 times

B3: BoTEMO-M2: BoTEMO mutant, Ser357Ile, Phe394Ala, SEQ ID No. 6 (protein)
chain: MSTEHVDVLIVGAGLSGIAAAYHLQHKCPGKRFALLEGRGALGGTWDLFRYPGIRSDSDMYTLGYSFKPWTDPKAIADGPQILKYVQDTATENGIDRHIRFNHRVRRASWSSADARWTVEAERQTAQGTTETVSMTCGFLFMCSGYYRYEKGYLPDFKGMADFKGRIVHPQAWPADLDYAGKRVVVIGSGATAVTLVPAMAKTAAHVTMLQRSPTYVVSRPAQDALANKLREHLPAGLAYHLIRWRNVLFGMYFFQLSRRKPQRVKQLILGGVRAALGPDYDVATHFTPRYNPWDQRLCLVPDGDLFRTIREQRASVVTAGIDTFTERGLRLSDGRELEAEIVVTATGLVLQVLGGIEVVVDGRTVDFAKTLNYKGMMYSDVPNMAATLGYTNASWTLKCDLTCEYVCRLLNYMDRHGYRQCVPHNDDTTVTPLPSLSFSSGYVQRSIADLPKQGSKRPWRLYQNYALDIVSLRFGKVDDGVMRYS
modifications: VARIANT
activity against the lansoprazole thioether [2]: 4.2 U/g
enzyme activity relative to BoTEMO [2]: 1.6 times
